From the NIST ThermoML archive (doi:10.1021/je8006138)
Numbers after ± are expanded uncertainties.

Columns and labels:
[1] = xn = mol fraction of the nth substance listed; settings: 101 kPa, Liquid; for viscosity: Capillary tube (Ostwald / Ubbelohde) method; for mass density: Pycnometric method
[2] = 101 kPa, Liquid; for viscosity: Capillary tube (Ostwald / Ubbelohde) method; for mass density: Pycnometric method

CCCCC(CC)COP(=O)(OCC(CC)CCCC)OCC(CC)CCCC (stereo not drawn) [tris(2-ethylhexyl) phosphate] + CCCCCC
[1]
Settings	mass density, 293.15 K [kg/m3]	mass density, 298.15 K [kg/m3]	mass density, 303.15 K [kg/m3]	viscosity, 293.15 K [mPa·s]	viscosity, 298.15 K [mPa·s]	viscosity, 303.15 K [mPa·s]
x1 = 0.1027	739.4 ± 0.3	735.2 ± 0.3	730.9 ± 0.3	0.638 ± 0.007	0.594 ± 0.007	0.56 ± 0.007
x1 = 0.1999	789.2 ± 0.3	785 ± 0.3	780.9 ± 0.3	1.103 ± 0.009	1.019 ± 0.009	0.948 ± 0.008
x1 = 0.2976	823.2 ± 0.3	819 ± 0.3	815 ± 0.3	1.754 ± 0.012	1.608 ± 0.011	1.475 ± 0.01
x1 = 0.4047	851.5 ± 0.3	847.5 ± 0.3	843.5 ± 0.3	2.753 ± 0.017	2.485 ± 0.015	2.246 ± 0.014
x1 = 0.5005	869.7 ± 0.3	865.8 ± 0.3	861.9 ± 0.3	3.881 ± 0.024	3.438 ± 0.021	3.053 ± 0.019
x1 = 0.5889	883.6 ± 0.3	879.6 ± 0.3	875.8 ± 0.3	5.1 ± 0.032	4.479 ± 0.028	3.923 ± 0.025
x1 = 0.7133	898.9 ± 0.3	895.3 ± 0.3	891.4 ± 0.4	7.34 ± 0.046	6.247 ± 0.04	5.405 ± 0.035
x1 = 0.8032	908.3 ± 0.4	904.5 ± 0.4	900.8 ± 0.4	9.121 ± 0.058	7.73 ± 0.05	6.583 ± 0.043
x1 = 0.8907	916.3 ± 0.4	912.6 ± 0.4	908.9 ± 0.4	11.18 ± 0.072	9.353 ± 0.061	7.935 ± 0.053
x1 = 1	923.8 ± 0.4	920.1 ± 0.4	916.4 ± 0.4	14.09 ± 0.095	11.62 ± 0.079	9.708 ± 0.067

C1CCCCC1 [cyclohexane]
[2]
Settings	mass density [kg/m3]	viscosity [mPa·s]
293.15 K	778.6 ± 0.3	0.984 ± 0.009
298.15 K	773.9 ± 0.3	0.903 ± 0.008
303.15 K	769.2 ± 0.3	0.83 ± 0.008

CCCCC(CC)COP(=O)(OCC(CC)CCCC)OCC(CC)CCCC (stereo not drawn) [tris(2-ethylhexyl) phosphate]
[2]
Settings	mass density [kg/m3]	viscosity [mPa·s]
293.15 K	923.8 ± 0.4	14.09 ± 0.095
298.15 K	920.1 ± 0.4	11.62 ± 0.079
303.15 K	916.4 ± 0.4	9.708 ± 0.067

CCCCCC [hexane]
[2]
Settings	mass density [kg/m3]	viscosity [mPa·s]
293.15 K	659.9 ± 0.2	0.319 ± 0.006
298.15 K	655.3 ± 0.2	0.304 ± 0.006
303.15 K	650.8 ± 0.2	0.29 ± 0.006
